How the values were obtained:
[1] = system: AVEFA; assay: Post-emergence herbicidal action against AVEFA; type: in vivo, Avena fatua; settings: visual assessment about 3 weeks after treatment, 100% = plants have died, 0% = like control plants
Procedure, shortened: (§1)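 A WP or EC formulation diluted in water with 0.2% wetting agent was sprayed at 600 to 800 l/ha onto one-leaf-stage plants grown in sandy loam. About 3 weeks later, action was rated visually in percent, 100% being dead plants.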

[2] = system: POLCO; assay: Post-emergence herbicidal action against POLCO; type: in vivo, Polygonum convolvulus; settings: dosage 20 g/ha
Procedure, shortened: as §1

[3] = system: SETVI; assay: Pre-emergence herbicidal action against SETVI; type: in vivo, Setaria viridis; settings: dosage 80 g/ha
Procedure, shortened: (§2)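 Greenhouse pots of sandy loam held seeds covered with soil, onto which the compound was applied before emergence. An aqueous suspension or emulsion of WP or EC was used at 600 to 800 l/ha with 0.2% wetting agent. Percent damage was judged visually at 3 weeks.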

[4] = system: AMARE; assay: Pre-emergence herbicidal action against AMARE; type: in vivo, Amaranthus retroflexus
Procedure, shortened: as §2

[5] = system: SETVI; assay: Post-emergence herbicidal action against SETVI; type: in vivo, Setaria viridis
Procedure, shortened: as §1

[6] = system: ABUTH; assay: Pre-emergence herbicidal action against ABUTH; type: in vivo, Abutilon theophrasti
Procedure, shortened: as §2

[7] = system: ALOMY; assay: Pre-emergence herbicidal action against ALOMY; type: in vivo, Alopecurus myosuroides; settings: 80 g/ha, pre-emergence, scored visually after 3 weeks vs untreated controls (100% = plants have died, 0% = like control plants)
Procedure, shortened: as §2

[8] = system: AVEFA; assay: Pre-emergence herbicidal action against AVEFA; type: in vivo, Avena fatua; settings: 80 g/ha, pre-emergence
Procedure, shortened: as §2

[9] = system: DIGSA; assay: Pre-emergence herbicidal action against DIGSA; type: in vivo, Digitaria sanguinalis
Procedure, shortened: as §2

[10] = system: MATIN; assay: Post-emergence herbicidal action against MATIN; type: in vivo, Matricaria inodora
Procedure, shortened: as §1

[11] = system: ABUTH; assay: Post-emergence herbicidal action against ABUTH; type: in vivo, Abutilon theophrasti; settings: visual assessment about 3 weeks after treatment vs untreated controls
Procedure, shortened: as §1

[12] = system: MATIN; assay: Pre-emergence herbicidal action against MATIN; type: in vivo, Matricaria inodora
Procedure, shortened: as §2

[13] = system: PHBPU; assay: Post-emergence herbicidal action against PHBPU; type: in vivo, Pharbitis purpurea
Procedure, shortened: as §1

[14] = system: ECHCG; assay: Post-emergence herbicidal action against ECHCG; type: in vivo, Echinochloa crus-galli
Procedure, shortened: as §1

[15] = system: ECHCG; assay: Pre-emergence herbicidal action against ECHCG; type: in vivo, Echinochloa crus-galli
Procedure, shortened: as §2

[16] = system: VIOTR; assay: Pre-emergence herbicidal action against VIOTR; type: in vivo, Viola tricolor
Procedure, shortened: as §2

[17] = system: ALOMY; assay: Post-emergence herbicidal action against ALOMY; type: in vivo, Alopecurus myosuroides; settings: Alopecurus myosuroides, 504 h, dosage 20 g/ha, visual assessment about 3 weeks after treatment vs untreated controls
Procedure, shortened: as §1

[18] = system: AMARE; assay: Post-emergence herbicidal action against AMARE; type: in vivo, Amaranthus retroflexus; settings: Amaranthus retroflexus, 504 h, 20 g/ha, visual assessment about 3 weeks after treatment, 100% = plants have died, 0% = like control plants
Procedure, shortened: as §1

[19] = system: VIOTR; assay: Post-emergence herbicidal action against VIOTR; type: in vivo, Viola tricolor; settings: Viola tricolor, 504 h, 20 g/ha
Procedure, shortened: as §1

[20] = system: DIGSA; assay: Post-emergence herbicidal action against DIGSA; type: in vivo, Digitaria sanguinalis; settings: Digitaria sanguinalis, 504 h
Procedure, shortened: as §1

[21] = system: STEME; assay: Post-emergence herbicidal action against STEME; type: in vivo, Stellaria media; settings: Stellaria media, 504 h
Procedure, shortened: as §1

[22] = system: VERPE; assay: Pre-emergence herbicidal action against VERPE; type: in vivo, Veronica persica; settings: Veronica persica, 504 h, dosage 80 g/ha
Procedure, shortened: as §2

[23] = system: PHBPU; assay: Pre-emergence herbicidal action against PHBPU; type: in vivo, Pharbitis purpurea; settings: Ipomoea purpurea, 504 h, dosage 80 g/ha
Procedure, shortened: as §2

[24] = system: VERPE; assay: Post-emergence herbicidal action against VERPE; type: in vivo, Veronica persica; settings: Veronica persica, 504 h
Procedure, shortened: as §1

[25] = system: POLCO; assay: Pre-emergence herbicidal action against POLCO; type: in vivo, Polygonum convolvulus; settings: Fallopia convolvulus, 504 h, dosage 80 g/ha
Procedure, shortened: as §2

[26] = system: STEME; assay: Pre-emergence herbicidal action against STEME; type: in vivo, Stellaria media; settings: Stellaria media, 504 h
Procedure, shortened: as §2

[27] = 80 g/ha, scored visually after 3 weeks vs untreated controls (100% = plants have died, 0% = like control plants)
[28] = Tripleurospermum inodorum, 504 h, dosage 20 g/ha

**Q.** Which results are given for `Cc1c(C(=O)Nc2nnnn2C)ccc(C(F)(F)F)c1C(=O)NCC1CC1` [Example 1-28]?
**A.** Post-emergence action at 5 g/ha against AVEFA in % ([1]; 5 g/ha): 80%; Post-emergence action at 20 g/ha against AVEFA in % ([1]; 20 g/ha): 80%; Post-emergence action against POLCO in % [2]: 80%; Pre-emergence action against SETVI in % [3]: 100%; Pre-emergence action against AMARE in % ([4]; 20 g/ha, scored visually after 3 weeks vs untreated controls, 100% = plants have died, 0% = like control plants): 100%; Pre-emergence action against AMARE in % [4, 27]: 100%; Post-emergence action against SETVI in % ([5]; dosage 5 g/ha): 80%; Post-emergence action against SETVI in % ([5]; dosage 20 g/ha): 80%; Pre-emergence action against ABUTH (herbicidal activity) [6, 27]: 100%; Pre-emergence action against ABUTH (herbicidal activity in percent) ([6]; dosage 20 g/ha, scored visually after 3 weeks vs untreated controls, 100% = plants have died, 0% = like control plants): 90%; Pre-emergence action against ALOMY (herbicidal activity) [7]: 90%; Pre-emergence action against AVEFA in % [8]: 100%; Pre-emergence action against DIGSA in % ([9]; dosage 20 g/ha): 100%; Pre-emergence action against DIGSA in % ([9]; dosage 80 g/ha): 100%; Post-emergence action against MATIN in % ([10]; dosage 20 g/ha): 80%; Post-emergence action against ABUTH in % ([11]; dosage 5 g/ha): 80%; Post-emergence action against ABUTH in % ([11]; dosage 20 g/ha): 80%; Pre-emergence action against MATIN in % ([12]; dosage 20 g/ha): 100%; Pre-emergence action against MATIN in % ([12]; dosage 80 g/ha): 100%; Post-emergence action against PHBPU in % ([13]; dosage 20 g/ha): 90%; Post-emergence action against ECHCG in % ([14]; dosage 5 g/ha): 80%; Post-emergence action against ECHCG in % ([14]; dosage 20 g/ha): 90%; Pre-emergence action against ECHCG in % ([15]; 80 g/ha): 100%; Pre-emergence action against VIOTR in % ([16]; dosage 20 g/ha): 100%; Pre-emergence action against VIOTR in % ([16]; dosage 80 g/ha): 100%

**Q.** With `CCNC(=O)c1c(C(F)F)ccc(C(=O)Nc2nnnn2C)c1SC` [Example 1-88] as the compound, how does the pest or weed control at 20 g/ha ([1]; Avena fatua, 504 h, 20 g/ha) read?
**A.** 80%

**Q.** And the pest or weed control at 20 g/ha ([2]; Fallopia convolvulus, 504 h)?
**A.** 80%

**Q.** What about the pest or weed control at 80 g/ha ([3]; Setaria viridis, 504 h) of the same compound?
**A.** 100%

**Q.** And the pest or weed control at 20 g/ha [17]?
**A.** 80%

**Q.** And the pest or weed control at 20 g/ha [18]?
**A.** 90%

**Q.** And the pest or weed control at 20 g/ha ([4]; Amaranthus retroflexus, 504 h, 20 g/ha, scored visually after 3 weeks vs untreated controls, 100% = plants have died, 0% = like control plants)?
**A.** 100%

**Q.** And the pest or weed control at 80 g/ha ([4]; Amaranthus retroflexus, 504 h, 80 g/ha, scored visually after 3 weeks vs untreated controls, 100% = plants have died, 0% = like control plants)?
**A.** 100%

**Q.** What about the pest or weed control at 5 g/ha ([5]; Setaria viridis, 504 h, dosage 5 g/ha) of the same compound?
**A.** 80%

**Q.** What about the pest or weed control at 20 g/ha ([5]; Setaria viridis, 504 h, dosage 20 g/ha) of the same compound?
**A.** 90%

**Q.** What about the pest or weed control at 20 g/ha [19] of the same compound?
**A.** 80%

**Q.** What about the pest or weed control at 80 g/ha ([6]; Abutilon theophrasti, 504 h, 80 g/ha, scored visually after 3 weeks vs untreated controls (100% = plants have died, 0% = like control plants)) of the same compound?
**A.** 100%

**Q.** What about the pest or weed control at 20 g/ha ([6]; Abutilon theophrasti, 504 h, dosage 20 g/ha, scored visually after 3 weeks vs untreated controls, 100% = plants have died, 0% = like control plants, read-out: Pre-emergence action against ABUTH (herbicidal activity in percent)) of the same compound?
**A.** 100%

**Q.** And the pest or weed control at 80 g/ha ([7]; Alopecurus myosuroides, 504 h)?
**A.** 90%

**Q.** What about the pest or weed control at 80 g/ha ([8]; Avena fatua, 504 h) of the same compound?
**A.** 90%

**Q.** What about the pest or weed control at 20 g/ha ([9]; Digitaria sanguinalis, 504 h, dosage 20 g/ha) of the same compound?
**A.** 100%

**Q.** What about the pest or weed control at 80 g/ha ([9]; Digitaria sanguinalis, 504 h, dosage 80 g/ha) of the same compound?
**A.** 100%

**Q.** And the pest or weed control at 5 g/ha ([20]; 5 g/ha)?
**A.** 90%

**Q.** And the pest or weed control at 20 g/ha ([20]; 20 g/ha)?
**A.** 90%

**Q.** What about the pest or weed control at 20 g/ha ([21]; 20 g/ha) of the same compound?
**A.** 90%

**Q.** What about the pest or weed control at 5 g/ha ([21]; dosage 5 g/ha) of the same compound?
**A.** 90%

**Q.** And the pest or weed control at 5 g/ha ([10]; Tripleurospermum inodorum, 504 h, dosage 5 g/ha)?
**A.** 80%

**Q.** What about the pest or weed control at 20 g/ha [10, 28] of the same compound?
**A.** 80%

**Q.** And the pest or weed control at 5 g/ha ([11]; Abutilon theophrasti, 504 h, dosage 5 g/ha)?
**A.** 90%

**Q.** And the pest or weed control at 20 g/ha ([11]; Abutilon theophrasti, 504 h, dosage 20 g/ha)?
**A.** 90%

**Q.** And the pest or weed control at 80 g/ha [22]?
**A.** 100%

**Q.** And the pest or weed control at 20 g/ha [12, 28]?
**A.** 100%

**Q.** And the pest or weed control at 80 g/ha ([12]; Tripleurospermum inodorum, 504 h, dosage 80 g/ha)?
**A.** 100%

**Q.** What about the pest or weed control at 80 g/ha [23] of the same compound?
**A.** 90%

**Q.** And the pest or weed control at 5 g/ha ([24]; 5 g/ha)?
**A.** 80%

**Q.** What about the pest or weed control at 20 g/ha ([24]; 20 g/ha) of the same compound?
**A.** 90%

**Q.** And the pest or weed control at 5 g/ha ([13]; Ipomoea purpurea, 504 h, dosage 5 g/ha)?
**A.** 80%

**Q.** What about the pest or weed control at 20 g/ha ([13]; Ipomoea purpurea, 504 h, dosage 20 g/ha) of the same compound?
**A.** 90%

**Q.** And the pest or weed control at 5 g/ha ([14]; Echinochloa crus-galli, 504 h, dosage 5 g/ha)?
**A.** 80%

**Q.** What about the pest or weed control at 20 g/ha ([14]; Echinochloa crus-galli, 504 h, dosage 20 g/ha) of the same compound?
**A.** 90%

**Q.** And the pest or weed control at 20 g/ha ([15]; Echinochloa crus-galli, 504 h, 20 g/ha)?
**A.** 90%

**Q.** And the pest or weed control at 80 g/ha ([15]; Echinochloa crus-galli, 504 h, 80 g/ha)?
**A.** 100%

**Q.** And the pest or weed control at 80 g/ha [25]?
**A.** 80%

**Q.** And the pest or weed control at 20 g/ha ([26]; dosage 20 g/ha)?
**A.** 100%

**Q.** What about the pest or weed control at 80 g/ha ([26]; dosage 80 g/ha) of the same compound?
**A.** 100%

**Q.** And the pest or weed control at 20 g/ha ([16]; Viola tricolor, 504 h, dosage 20 g/ha)?
**A.** 100%

**Q.** What about the pest or weed control at 80 g/ha ([16]; Viola tricolor, 504 h, dosage 80 g/ha) of the same compound?
**A.** 100%

Reference: patent publication US12655116B2, “Substituted isophthalic acid diamides” (Bayer Aktiengesellschaft, priority 2020, dated 2026)
